Consider 17 compounds from patent US10508109B2 (priority 2015, dated 2019).

For one assay, the system named is HFL1. The assay is described as follows: Cell-based assay, anti-proliferative activity (Cell Counting Kit-8, 72 hours). The note with it: Homo sapiens, HFL1 cells, read-out: IC50 (μM) HFL1. A digest of the protocol:
(§1)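 CCK-8 growth read-out at 72 h post compound exposure; 96-well seeding. IC50 from 8-point dilution (0–100 micro-M, twofold steps from 1.5625 micro-M).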

For another assay, the system named is HCT-116. The assay is described as above. The note with it: Homo sapiens, HCT-116 cells, read-out: IC50 (μM) HCT-116. The method, boiled down: as §1
The test system of a further assay is PC14. The description is as above. As to conditions: Homo sapiens, PC-14, PC14 cells, read-out: IC50 (μM) PC14. The method, boiled down:
as §1

For another assay, the system named is CCD-18Co. The description is as above. As to conditions: Homo sapiens, CCD-18Co cells, read-out: IC50 (μM) CCD-18Co. The method, boiled down: as §1
A further assay has as its system A549. The assay is described as above. As to conditions: Homo sapiens, A549 cells, read-out: IC50 (μM) A549. A digest of the protocol:
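Seed cells in 96-well format; add inhibitors; measure growth by CCK-8 at end of exposure; derive IC50.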

The target in another assay is SUV39H2 (Homo sapiens (Human), UniProt Q9H5I1). The note with it: read-out: IC50 (μM) Suv 39H2 assay; enzyme assay.

Where two headings read alike, the source gives them in different places.

SUV39H2, sequence (Q9H5I1 whole entry): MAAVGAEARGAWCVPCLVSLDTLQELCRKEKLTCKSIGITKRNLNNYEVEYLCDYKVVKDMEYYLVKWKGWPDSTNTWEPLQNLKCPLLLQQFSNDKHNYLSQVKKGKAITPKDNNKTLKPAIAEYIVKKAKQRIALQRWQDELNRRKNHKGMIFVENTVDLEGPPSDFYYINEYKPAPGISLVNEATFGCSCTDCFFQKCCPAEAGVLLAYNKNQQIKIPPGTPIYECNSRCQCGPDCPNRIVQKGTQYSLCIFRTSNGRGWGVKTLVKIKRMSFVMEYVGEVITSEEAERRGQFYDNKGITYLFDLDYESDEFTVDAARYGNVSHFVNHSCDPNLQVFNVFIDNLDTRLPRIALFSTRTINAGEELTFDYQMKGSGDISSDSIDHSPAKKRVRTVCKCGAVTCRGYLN

Regarding `COc1cc(OCCCN(C)C)c(-c2cn3ccc(N4CCC(N)CC4)cc3n2)cc1Cl` [Example 150, 1-(2-{5-chloro-2-[3-(dimethylamino)propoxy]-4-methoxyphenyl}-imidazo[1,2-a]pyridin-7-yl)piperidin-4-amine], the IC50 in the assay on HFL1 (Cell Counting Kit-8, 72 hours) was found to be 0.86 µM; with HCT-116 (Cell Counting Kit-8, 72 hours), 2.1 µM; in the assay on PC14 (Cell Counting Kit-8, 72 hours), 2.2 µM; with CCD-18Co (Cell Counting Kit-8, 72 hours) it was 2.4 µM; with A549 (Cell Counting Kit-8, 72 hours) it was 2.3 µM; on SUV39H2 it was 0.035 µM.
`COC(=O)N1CCN(c2ccn3cc(-c4cc(Cl)c(OC)cc4OCCCN(C)C)nc3c2)CC1` [Example 152, methyl 4-(2-(5-chloro-2-(3-(dimethylamino)propoxy)-4-methoxyphenyl)-imidazo[1,2-a]pyridin-7-yl)piperazine-1-carboxylate]: the IC50 in the assay with HFL1 (Cell Counting Kit-8, 72 hours) is 1.9 µM; in the assay on HCT-116 (Cell Counting Kit-8, 72 hours), 7.1 µM; with PC14 (Cell Counting Kit-8, 72 hours), 2.7 µM; in the assay with CCD-18Co (Cell Counting Kit-8, 72 hours) it was 5.3 µM; in the assay on A549 (Cell Counting Kit-8, 72 hours), 6.4 µM; at SUV39H2, 0.0199 µM.
Turning to `CCOP(=O)(CCN1CCCN(c2ccn3cc(-c4cc(Cl)c(OC)cc4OC)nc3c2)CC1)OCC` [Example 210, diethyl (2-(4-(2-(5-chloro-2,4-dimethoxyphenyl)imidazo[1,2-a]pyridin-7-yl)-1,4-diazepan-1-yl)ethyl)phosphonate], the IC50 was 7.2 µM with HFL1 (Cell Counting Kit-8, 72 hours); 10 µM in the assay on HCT-116 (Cell Counting Kit-8, 72 hours); 4.5 µM in the assay with PC14 (Cell Counting Kit-8, 72 hours); 5.5 µM in the assay on CCD-18Co (Cell Counting Kit-8, 72 hours); 10 µM in the assay with A549 (Cell Counting Kit-8, 72 hours); 0.0029 µM at SUV39H2.
Turning to `COc1cc(OC)c(-c2cn3ccc(N4CCN(CCN5CCN(C(=O)OC(C)(C)C)CC5)CC4)cc3n2)cc1Cl` [Example 136, tert-butyl 4-(2-(4-(2-(5-chloro-2,4-dimethoxyphenyl)imidazo[1,2-a]pyridin-7-yl)piperazin-1-yl)ethyl)piperazine-1-carboxylate], the IC50 with HFL1 (Cell Counting Kit-8, 72 hours) amounted to 1.8 µM; in the assay with HCT-116 (Cell Counting Kit-8, 72 hours), 1.5 µM; in the assay on PC14 (Cell Counting Kit-8, 72 hours), 2.2 µM; in the assay with CCD-18Co (Cell Counting Kit-8, 72 hours), 1.8 µM; in the assay with A549 (Cell Counting Kit-8, 72 hours), 1.5 µM; at SUV39H2, 0.0166 µM.
In the case of `COc1cc(OCCCN(C)C)c(-c2cn3ccc(N4CCN(S(=O)(=O)N(C)C)CC4)cc3n2)cc1Cl` [Example 196, 4-(2-{5-Chloro-2-[3-(dimethylamino)propoxy]-4-methoxyphenyl}imidazo[1,2-a]pyridin-7-yl)-N,N-dimethylpiperazine-1-sulfonamide], the IC50 stood at 2.4 µM with HFL1 (Cell Counting Kit-8, 72 hours); 2.2 µM in the assay with HCT-116 (Cell Counting Kit-8, 72 hours); 1.9 µM in the assay on PC14 (Cell Counting Kit-8, 72 hours); 2.8 µM in the assay on CCD-18Co (Cell Counting Kit-8, 72 hours); 2.1 µM in the assay with A549 (Cell Counting Kit-8, 72 hours); 0.0147 µM on SUV39H2.
As to `COc1cc(OC)c(-c2cn3ccc(N4CCN(S(=O)(=O)N(C)C)CC4)cc3n2)cc1Cl` [Example 171, 4-[2-(5-chloro-2,4-dimethoxyphenyl)imidazo[1,2-a]pyridin-7-yl]-N,N-dimethylpiperazine-1-sulfonamide], the IC50 with HFL1 (Cell Counting Kit-8, 72 hours) came out at 1.2 µM; in the assay with HCT-116 (Cell Counting Kit-8, 72 hours), 0.94 µM; in the assay with PC14 (Cell Counting Kit-8, 72 hours), 2 µM; with CCD-18Co (Cell Counting Kit-8, 72 hours), 0.84 µM; in the assay with A549 (Cell Counting Kit-8, 72 hours) it was 0.83 µM; at SUV39H2, 0.0135 µM.
Regarding `COc1ccc(CN[C@H]2CCN(c3ccn4cc(-c5cc(Cl)c(OC)cc5OC)nc4c3)C2)cc1` [Example 306, (S)-1-(2-(5-chloro-2,4-dimethoxyphenyl)imidazo[1,2-a]pyridin-7-yl)-N-(4-methoxybenzyl)pyrrolidin-3-amine], the IC50 amounted to 0.72 µM with HFL1 (72 hours, Cell Counting Kit-8); 0.69 µM in the assay with HCT-116 (72 hours, Cell Counting Kit-8); 1.4 µM in the assay with PC14 (72 hours, Cell Counting Kit-8); 1.4 µM in the assay on CCD-18Co (72 hours, Cell Counting Kit-8); 1.3 µM in the assay with A549 (72 hours, Cell Counting Kit-8); 0.00881 µM on SUV39H2.
As for `COc1cc(OC)c(-c2cn3cc(Br)c(N4CCNCC4)cc3n2)cc1Cl` [Example 217, 6-bromo-2-(5-chloro-2,4-dimethoxyphenyl)-7-(piperazin-1-yl)-imidazo[1,2-a]pyridine], the IC50 in the assay on HFL1 (72 hours, Cell Counting Kit-8) is 4.9 µM; in the assay on HCT-116 (72 hours, Cell Counting Kit-8), 5.5 µM; in the assay on PC14 (72 hours, Cell Counting Kit-8), 3.4 µM; in the assay on CCD-18Co (72 hours, Cell Counting Kit-8), 4.3 µM; in the assay with A549 (72 hours, Cell Counting Kit-8), 7.2 µM; on SUV39H2 it was 0.0416 µM.
Consider `COc1cc(OC)c(-c2cn3ccc(N4CCN(c5ccnc(N6CCCCC6)n5)CC4)cc3n2)cc1Cl` [Example 295, 2-(5-chloro-2,4-dimethoxyphenyl)-7-(4-(2-(piperidin-1-yl)pyrimidin-4-yl)piperazin-1-yl)imidazo[1,2-a]pyridine], for which the 50% inhibitory concentration (IC50) in the assay with HFL1 (72 hours, Cell Counting Kit-8) turned out to be 1.4 µM; with HCT-116 (72 hours, Cell Counting Kit-8) it was 0.93 µM; in the assay on PC14 (72 hours, Cell Counting Kit-8), 0.93 µM; with CCD-18Co (72 hours, Cell Counting Kit-8) it was 1.3 µM; in the assay with A549 (72 hours, Cell Counting Kit-8), 0.89 µM; at SUV39H2 it was 0.0598 µM.
With `COc1cc(OC)c(-c2cn3ccc(NC(=O)[C@H](C)NC(=O)OC(C)(C)C)cc3n2)cc1Cl` [Example 253, (S)-tert-butyl (1-((2-(5-chloro-2,4-dimethoxyphenyl)imidazo[1,2-a]-pyridin-7-yl)amino)-1-oxopropan-2-yl)carbamate], the IC50 with HFL1 (72 hours, Cell Counting Kit-8) is 6.5 µM; with HCT-116 (72 hours, Cell Counting Kit-8), 10 µM; in the assay with PC14 (72 hours, Cell Counting Kit-8), 6.9 µM; in the assay on CCD-18Co (72 hours, Cell Counting Kit-8), 6.7 µM; with A549 (72 hours, Cell Counting Kit-8), 10 µM; at SUV39H2, 0.0582 µM.
In the case of `CCc1cc(OC)c(Cl)cc1-c1cn2ccc(N3CCN(S(=O)(=O)C4CC4)CC3)cc2n1` [Example 261, 2-(5-chloro-2-ethyl-4-methoxyphenyl)-7-(4-(cyclopropylsulfonyl)piperazin-1-yl)imidazo[1,2-a]pyridine], the IC50 in the assay on HFL1 (72 hours, Cell Counting Kit-8) turned out to be 0.18 µM; in the assay with HCT-116 (72 hours, Cell Counting Kit-8), 0.18 µM; in the assay on PC14 (72 hours, Cell Counting Kit-8) it was 0.059 µM; with CCD-18Co (72 hours, Cell Counting Kit-8) it was 0.36 µM; with A549 (72 hours, Cell Counting Kit-8), 0.12 µM; at SUV39H2, 0.0966 µM.
Turning to `COc1cc(OC)c(-c2cn3cc(NCCN)c(N4CCN(S(=O)(=O)C5CC5)CC4)cc3n2)cc1Cl` [Example 225, N^1-(2-(5-chloro-2,4-dimethoxyphenyl)-7-(4-(cyclopropylsulfonyl)-piperazin-1-yl)imidazo[1,2-a]pyridin-6-yl)ethane-1,2-diamine], the IC50 was determined as 7.3 µM in the assay with HFL1 (72 hours, Cell Counting Kit-8); 9.6 µM in the assay with HCT-116 (72 hours, Cell Counting Kit-8); 6.9 µM in the assay with PC14 (72 hours, Cell Counting Kit-8); 7.3 µM in the assay with CCD-18Co (72 hours, Cell Counting Kit-8); 10 µM with A549 (72 hours, Cell Counting Kit-8); 0.0022 µM at SUV39H2.
As to `COc1cc(OC)c(-c2cn3ccc(N4CCC(N5CCCS5(=O)=O)CC4)cc3n2)cc1Cl` [Example 182, 2-{1-[2-(5-chloro-2,4-dimethoxyphenyl)imidazo[1,2-a]pyridin-7-yl]piperidin-4-yl}isothiazolidine 1,1-dioxide], the IC50 came out at 1.8 µM in the assay with HFL1 (Cell Counting Kit-8, 72 hours); 1.9 µM in the assay with HCT-116 (Cell Counting Kit-8, 72 hours); 1.5 µM in the assay on PC14 (Cell Counting Kit-8, 72 hours); 2.6 µM in the assay on CCD-18Co (Cell Counting Kit-8, 72 hours); 1.7 µM in the assay on A549 (Cell Counting Kit-8, 72 hours); 0.00697 µM at SUV39H2.
`COc1cc(C)c(Cl)cc1-c1cn2ccc(N3CCN(S(=O)(=O)C4CC4)CC3)cc2n1` [Example 229, 2-(5-chloro-2-methoxy-4-methylphenyl)-7-(4-(cyclopropylsulfonyl)-piperazin-1-yl)imidazo[1,2-a]pyridine]: the IC50 in the assay on HFL1 (72 hours, Cell Counting Kit-8) came to 2.3 µM; in the assay with HCT-116 (72 hours, Cell Counting Kit-8), 2.1 µM; in the assay on PC14 (72 hours, Cell Counting Kit-8), 0.8 µM; in the assay with CCD-18Co (72 hours, Cell Counting Kit-8), 3.8 µM; in the assay with A549 (72 hours, Cell Counting Kit-8), 1.9 µM; at SUV39H2 it was 0.0775 µM.
On to `COc1cc(OC)c(-c2cn3ccc(N4CCC(NS(=O)(=O)Cc5ccccc5)CC4)cc3n2)cc1Cl` [Example 175, N-{1-[2-(5-chloro-2,4-dimethoxyphenyl)imidazo[1,2-a]pyridin-7-yl]piperidin-4-yl}-1-phenylmethanesulfonamide], for which the IC50 in the assay with HFL1 (Cell Counting Kit-8, 72 hours) was 1.9 µM; in the assay with HCT-116 (Cell Counting Kit-8, 72 hours) it was 1.5 µM; with PC14 (Cell Counting Kit-8, 72 hours), 1.8 µM; in the assay with CCD-18Co (Cell Counting Kit-8, 72 hours) it was 2 µM; in the assay on A549 (Cell Counting Kit-8, 72 hours), 2 µM; on SUV39H2, 0.0263 µM.
`COc1cc(OC)c(-c2cn3ccc(N4CCCC4)nc3n2)cc1Br` [Example 3, 2-(5-bromo-2,4-dimethoxyphenyl)-7-(pyrrolidin-1-yl)imidazo[1,2-a]pyrimidine]: the IC50 in the assay with HFL1 (Cell Counting Kit-8, 72 hours) came out at 7.4 µM; with HCT-116 (Cell Counting Kit-8, 72 hours), 8.1 µM; in the assay with PC14 (Cell Counting Kit-8, 72 hours) it was 7.1 µM; in the assay on CCD-18Co (Cell Counting Kit-8, 72 hours) it was 6.8 µM; in the assay with A549 (Cell Counting Kit-8, 72 hours) it was 11 µM; on SUV39H2, 0.00858 µM.
As for `COc1cc(OC)c(-c2cn3ccc(N4CC[C@H](NCc5ccc([N+](=O)[O-])cc5)C4)cc3n2)cc1Cl` [Example 304, (S)-1-(2-(5-chloro-2,4-dimethoxyphenyl)imidazo[1,2-a]pyridin-7-yl)-N-(4-nitrobenzyl)pyrrolidin-3-amine], the half-maximal inhibitory concentration (IC50) is 0.7 µM in the assay with HFL1 (72 hours, Cell Counting Kit-8); 0.52 µM with HCT-116 (72 hours, Cell Counting Kit-8); 0.88 µM in the assay with PC14 (72 hours, Cell Counting Kit-8); 0.49 µM in the assay on CCD-18Co (72 hours, Cell Counting Kit-8); 0.87 µM in the assay with A549 (72 hours, Cell Counting Kit-8); 0.00888 µM on SUV39H2.
